The values that follow are results of earlier work, collected in patent publication US8003118B2 (priority 2005, dated 2011).

Regarding `CO[C@H]1/C=C/O[C@@]2(C)Oc3c(C)c(O)c4c(O)c(c5c(nc6cc(C)ccn65)c4c3C2=O)NC(=O)/C(C)=C\C=C\[C@H](C)[C@H](O)[C@@H](C)[C@@H](O)[C@@H](C)[C@H](OC(C)=O)[C@@H]1C` [rifaximin, (2S,16Z,18E,20S,21S,22R,23R,24R,25S,26S,27S,28E)-5,6,21,23,25-pentahydroxy-27-methoxy-2,4,11,16,20,22,24,26-octamethyl-2,7-(epoxypentadeca-[1,11,13]trienimino)benzofuro[4,5-e]pyrido[1,2-α]-benzimidazole-1,15(2H)-dione,25-acetate], the “solubility in water” value is “practically insoluble”.
